Measurements as given in article PMC8675330 (Frontiers in Pharmacology, 2021).
Structures can show the parent of a compound that is named as a salt. Where two headings read alike, the source gives them in different places. Marks after values point to notes of the source that are not given here. Values belong to the molecule of their own block, whether it stands above or below them.

Experiments:
[1] = significant first-pass metabolism; no reference given; cited from earlier work
[2] = Solubility of escitalopram and paroxetine in liquid lipids; type: physicochemical; details: 24 h stirring at 25°C, n = 3, mean ± SD; for solubility at 24 h: oil or lipid, thermodynamic from solid
Protocol: Briefly, 0.5 g of solid lipid Precirol® ATO 5 was melted in a controlled temperature water bath at 65°C. […] Regarding liquid lipids (oleic acid, Labrasol®, Labrafac™ PG, Lauroglycol™ 90, and Miglyol® 812 N), both drugs were dispersed in screw-capped tubes with the liquid compounds (0.5 ml each) and kept under mechanical stirring for 24 h at 25°C. […] An aliquot of the supernatant was diluted with the mobile phase, filtered through a 0.22-µm membrane, and analyzed. […] The HPLC-DAD apparatus and data acquisition were controlled by using Lab Solutions Software (Shimadzu Corporation, Tokyo, Japan). […] The mobile phase was composed of 20 mM phosphate buffer (pH 3.8 adjusted with orthophosphoric acid) and acetonitrile (80:20, v/v) pumped at a flow rate of 1.0 ml/min.

[3] = In vivo pharmacokinetics in plasma, brain and lung after IV, IN and IN + BorNLC co-administration; parameters: species or system CD-1 mice; details: for Kp / Cmax / Tmax / AUC(0-t): CD-1, mouse
Protocol: Healthy adult CD-1 mice (25–30 g) were acquired from Charles River Laboratories (L’Arbresle, France) and accommodated in a relative humidity of 55 ± 5%, a controlled temperature of 20 ± 2°C, and reversed 12 h light–dark cycles. The studies were always performed in the dark phase (active phase between 08h00 and 20h00). A period of at least 7 days was considered for the animals to become familiarized with the environment. Animals had ad libitum access to food (4RF21, Mucedola®, Italy) and tap water during the entire experiment period.
Before treatment, animals were anesthetized by intraperitoneal administration of a mixture of ketamine (100 mg/kg) and xylazine (10 mg/kg) to keep them immobile during IN or IV administration. Animals were randomly divided into 3 groups (n = 28) and subdivided into 7 time-points (n = 4). […] Briefly, Pluronic F-127 (18%, w/v) and Carbopol 974P (0.2%, w/v) were added to cold water, since the first guarantees the thermoreversible characteristic of the nasal gel ([Swamy and Abbas, 2012]) and the second increases the bioadhesive properties of the gel, thus increasing the residence time in the nasal cavity and improving the central delivery of antidepressant drugs. […] Anesthetized animals were instilled with 14–25 µl (2.38 mg/kg) of the gel with a polyurethane tube (24G x 19 mm) attached to a microliter syringe. Formulation delivery was performed into one of the nostrils, where the tube was inserted about 10 mm deep.
Animals were sacrificed by cervical dislocation and decapitation at 5, 15, 30, 60, 120, 240, and 480 min after administration, and heparinized tubes were used for blood collection. Blood samples were centrifuged at 1,252 g for 10 min at 4°C, and plasma supernatants were analyzed by HPLC-DAD. The mice brain and lungs were quickly removed and gently cleaned with a sterile gauze humidified with saline to remove adherent surface blood. Then, these organs were weighed and homogenized in NaCl 0.9% (3 ml/g of tissue) using a tissue homogenizer with a Teflon® pestle from Thomas Scientific (Swedesboro, NJ, United States).
Briefly, 300 μl of methanol were added to 200 μl of plasma, 200 μl of lung homogenate, or 400 μl of brain homogenate for protein precipitation. After two extractions with 700 μl of n-hexane:alcohol isoamyl (98:2, v/v) mixture, organic phases were evaporated. Last, following reconstitution with 100 μl of a mixture of 20 mM phosphate buffer pH 3.8 and acetonitrile (70:30, v/v), the plasma and lung homogenate samples were transferred to a 0.22-μm Costar® Spin-X® centrifugal filter (Corning, Inc., NY, United States) and centrifuged at 12,100 g for 3 min. All final samples were injected (20 µl) into the HPLC-DAD system, in accordance with the analytical conditions described in section 2.2.1. The detection wavelength to quantify the IS was set at 290 nm.
The remaining pharmacokinetic parameters were estimated by non-compartmental analysis using WinNonlin® version 6.4 software (Certara, Princeton, NJ). Plasma and tissue concentrations below the lower limit of quantification (LLOQ) of the analytical method were considered zero for the pharmacokinetic data analysis.
For both drugs and in all matrices, the area under the concentration–time curve from time zero (AUC) to the time of the last measurable drug concentration (AUCt) was calculated by the linear trapezoidal rule.
To evaluate drug distribution into the brain and lungs after administration, the ratios were determined based on the quotient AUCt(tissue)/AUCt(plasma). The drug targeting efficiency (DTE) was calculated following Eq. 6: DTE(%)=(AUCt(brain)/AUCt(plasma))IN/(AUCt(brain)/AUCt(plasma))IV×100 (6)
Finally, to evaluate the direct drug passage from the nose to the brain, the direct transport percentage (DTP) was determined applying Eq. 7: DTP(%)=AUCt(brain) IN−[(AUCt(brain) IV/AUCt(plasma) IV)×AUCt(plasma) IN]/AUCbrain IN×100 (7)

[4] = system: P-glycoprotein (P-gp); details: cited from earlier work
[5] = parameters: method as in Kreilgaard et al., 2008; details: single subcutaneous injection, three doses (escitalopram 0.240-3.90 mg/kg; paroxetine 0.270-4.40 mg/kg); ref Kreilgaard et al., 2008; cited from earlier work
[6] = Lauroglycol 90 (liquid lipid), in Lauroglycol 90
[7] = oleic acid (liquid lipid), in oleic acid
[8] = inhaled or intranasal, paroxetine, brain, IN free drug, 2.38 mg/kg
[9] = inhaled or intranasal, paroxetine, lung, IN free drug, 2.38 mg/kg
[10] = inhaled or intranasal, paroxetine, plasma, IN free drug, 2.38 mg/kg
[11] = plasma, inhaled or intranasal, 2.38 mg/kg
[12] = paroxetine, brain, IV free drug, 2.38 mg/kg
[13] = paroxetine, lung, IV free drug, 2.38 mg/kg
[14] = paroxetine, plasma, IV free drug, 2.38 mg/kg
[15] = paroxetine, IN free drug vs IV, 2.38 mg/kg
[16] = brain, inhaled or intranasal, 2.38 mg/kg
[17] = lung, inhaled or intranasal, 2.38 mg/kg

solubility at 24 h [2, 6]: 13800 ± 1260 µg/mL
solubility ([2]; in Labrasol): 24000 ± 30500 µg/mL
solubility at 24 h [2, 7]: 1070 ± 580 µg/mL
Kp ([3]; brain/plasma, iv, 2.38 mg/kg, paroxetine, IV free drug, 2.38 mg/kg, read-out: AUCtbrain/AUCtplasma): 0.35
Kp ([3]; brain/plasma, other: intranasal (IN), 2.38 mg/kg, paroxetine, IN free drug, 2.38 mg/kg, read-out: AUCtbrain/AUCtplasma): 0.82
Cmax [3, 8]: 283 ng/g
Tmax [3, 8]: 120 min
Cmax [3, 9]: 2820 ng/g
Tmax [3, 9]: 60 min
AUC(0-t) [3, 10]: 1390 ng·h/mL
Cmax [3, 10]: 696 ng/mL
Kp ([3]; lung/plasma, iv, 2.38 mg/kg, paroxetine, IV free drug, 2.38 mg/kg, read-out: AUCtlung/AUCtplasma): 2.63
Kp ([3]; lung/plasma, other: intranasal, 2.38 mg/kg, paroxetine, IN free drug, 2.38 mg/kg, read-out: AUCtlung/AUCtplasma): 8.4
Tmax [3, 11]: 5 min
Tmax ([3]; plasma, iv, 2.38 mg/kg): 5 min
Cmax [3, 12]: 233 ng/g
Tmax [3, 12]: 120 min
Cmax [3, 13]: 1010 ng/g
Tmax [3, 13]: 30 min
AUC(0-t) [3, 14]: 1630 ng·h/mL
Cmax [3, 14]: 820 ng/mL
DTE (drug targeting efficiency) [3, 15]: 232%
DTP (direct transport percentage) [3, 15]: 56.9%
AUCtbrain/AUCtplasma ([3]; paroxetine, IN free drug, 2.38 mg/kg): 0.821
AUCtbrain/AUCtplasma ([3]; paroxetine, IV free drug, 2.38 mg/kg): 0.354
AUCt ([3]; paroxetine, brain, IN free drug, 2.38 mg/kg): 68.2 ^c µg min/g
higher brain exposure (given by AUCt) than that of IV injection ([3]; paroxetine, brain, IN vs IV): 49%
AUCt [3, 12]: 34.6 ^c µg min/g
AUCt ([3]; paroxetine, lung, IN free drug, 2.38 mg/kg): 699 ^c µg min/g
AUCt [3, 13]: 257 ^c µg min/g
Compound: Fc1ccc([C@@H]2CCNC[C@H]2COc2ccc3c(c2)OCO3)cc1 [Paroxetine, Paroxetine hydrochloride]
oral bioavailability [1]: 30 to 60%
P-gp IC50 relative to therapeutic plasma concentrations ([4]; IC50 higher than therapeutic plasma concentrations, ref Hiemke et al., 2018): about 150 fold
P-gp inhibition IC50 ([4]; in vitro, ref Feng et al., 2008): 10 µg/mL
tmax in the plasma [5]: 4.80 to 5.40 min

solubility at 24 h ([2]; Labrafac PG (liquid lipid), in Labrafac PG, n.d. = not detected): 1340 ± 1120 µg/mL
solubility at 24 h ([2]; Labrasol (liquid lipid), in Labrasol): 14700 ± 14000 µg/mL
solubility at 24 h [2, 6]: 6910 ± 130 µg/mL
solubility at 24 h [2, 7]: 840 ± 120 µg/mL
Cmax [3, 16]: 133 ng/g
Tmax [3, 16]: 60 min
Cmax ([3]; brain, iv, 2.38 mg/kg): 511 ng/g
Tmax ([3]; brain, iv, 2.38 mg/kg): 15 min
Kp ([3]; brain/plasma, iv, 2.38 mg/kg, read-out: AUCtbrain/AUCtplasma): 0.871
Kp ([3]; brain/plasma, other: intranasal (IN), 2.38 mg/kg, read-out: AUCtbrain/AUCtplasma): 0.86
Cmax [3, 17]: 2310 ng/g
Tmax [3, 17]: 30 min
Cmax ([3]; lung, iv, 2.38 mg/kg): 1020 ng/g
Tmax ([3]; lung, iv, 2.38 mg/kg): 60 min
Kp ([3]; lung/plasma, iv, 2.38 mg/kg, read-out: AUCtlung/AUCtplasma): 2.45
Kp ([3]; lung/plasma, other: intranasal (IN), 2.38 mg/kg, read-out: AUCtlung/AUCtplasma): 10.6
AUC(0-t) [3, 11]: 507 ng·h/mL
Cmax [3, 11]: 550 ng/mL
Tmax [3, 11]: 5 min
AUC(0-t) ([3]; plasma, iv, 2.38 mg/kg): 1150 ng·h/mL
Cmax ([3]; plasma, iv, 2.38 mg/kg): 482 ng/mL
Tmax ([3]; plasma, iv, 2.38 mg/kg): 5 min
AUCt ([3]; escitalopram, brain, IN free drug, 2.38 mg/kg): 26.2 ^c µg.min/g
AUCt ([3]; escitalopram, brain, IV free drug, 2.38 mg/kg): 59.8 ^c µg.min/g
AUCt ([3]; escitalopram, lung, IN free drug, 2.38 mg/kg): 321 ^c µg.min/g
AUCt ([3]; escitalopram, lung, IN free drug, 2.38 mg/kg, listed as escitalopram): 168 µg·min/g
AUCt ([3]; escitalopram, lung, IV free drug, 2.38 mg/kg): 168 ^c µg.min/g
AUCt ([3]; escitalopram, lung, IV free drug, 2.38 mg/kg, listed as escitalopram): 321 µg·min/g
lung Cmax after free drug IN administration, times superior to BorNLC IN ([3]; escitalopram, lung, free IN vs BorNLC IN): 3.8 times
lung Cmax after free drug IN administration, times superior to IV ([3]; escitalopram, lung, free IN vs IV): 2.3 times
Compound: CN(C)CCC[C@@]1(c2ccc(F)cc2)OCc2cc(C#N)ccc21 [Escitalopram, escitalopram oxalate]
tmax in the plasma [5]: 3.00 to 5.40 min
